These results are taken from US20260306463A1, “SIK INHIBITORS TO TREAT CHRONIC KIDNEY DISEASE” (The General Hospital Corporation, priority 2023, published 2026).

In assay [1] the test system is YAP/TAZ responsive reporter. Nature of the assay: YAP/TAZ responsive luciferase reporter assay. It is filed as cell-based, mouse (NIH3T3 cells). The settings on record: 24 hours; for TGFß-stimulated YAP/TAZ reporter activity: TGFß stimulation. On the procedure: FIGS. 14A-14E. SIK pathway controls YAP/TAZ-dependent myofibroblast activation in kidney Gli1 cells. KGlil cells were treated as indicated for 48 hours followed by (A) immunoblotting and (B) RT-qPCR. (C) KGlil cells were treated±TGFß (5 ng/mL) or verteporfin (1 μM) for 48 hours followed by imnunoblotting. (D) Luciferase assay from cells were transfected with a YAP/TAZ responsive reporter. SIK inhibitor and forskolin both block basal and TGFß-stimulated-YAP/TAZ reporter activity. (E) Top, KGlil cells were treated for 24 hours as indicated followed by immunoblotting. Bottom, kidney lysates from adenine diet CKD mice were analyzed by immunoblotting as indicated.
To assess the signal of YAP/TAZ responsive reporter, the mouse fibroblast cell line NIH3T3 cells were transfected 24 hours after plating at 50,000 cells/ml in a 10 cm dish by using 15 μl Polyjet transfection reagent (SignaGen Laboratories, SL100688) and 5 μg of 8xGTIIC-luciferase construct. 48 hours after, the cells were then trypsinized and plated on a black 96-well plate and treated the next day for 24 hours. The luciferase and renilla signals were read using Renilla Luciferase Assay System kit (Promega, E2810) and EnVision plate reader (PerkinElmer).

In assay [2] the test system is human kidney organoids. Put plainly: cisplatin injury of human kidney organoids: immunostaining, organoid size. It counts as cell-based. Particulars: intermittent cisplatin, 5 treatments. On the procedure:
FIG. 7. SK-124 preserves human kidney organoid integrity in cisplatin injury model. Human kidney organoids derived from H9 embryonic stem cells were treated with intermittent cisplatin (5 separate treatments) based on published protocols along with the indicated agent. Organoids were cryo-sectioned and immuno-stained with the indicated markers. The top panels show low power images and the bottom panels focus on regions of proximal tubule cells. The graph measures the mean diameter of organoids in the control (no cisplatin), cisplatin+DMSO, and cisplatin+SK-124 treatment groups.
BJFF human induced pluripotent stem cells (hPSCs) were maintained on Geltrexcoated (Thermo Fisher Scientific) plates using StemFit Basic04 Complete (Ajinomoto Co. Inc.) as previously reported(25). The cells were passaged weekly using Accutase (STEMCELL Technologies) for dissociation and Y27632 (Tocris) for adhesion. Directed differentiation of hPSCs into kidney organoids has been published elsewhere (29). Briefly, hPSCs were differentiated into metanephric mesenchyme cells on day 8 by a three-step directed differentiation protocol. Metanephric mesenchyme was transferred into suspension culture in 96-well ultralow adhesion plates (Coming) and further differentiated into kidney organoids, as previously reported(25). Quality control measures of SIX2 immunostaining on day 8 of differentiation and CDH1, LTL, PODXL, CD146, MEIS1/2/3, and SYTOX-blue staining on day 21 were performed on all batches of kidney organoids to limit batch-to-batch heterogeneity. Kidney organoids were maintained in 200 μl of basal media consisting of Advanced RPMI (Thermo Fisher Scientific) and GlutaMAX (Thermo Fisher Scientific) in 96-well plates, as previously reported. Media changes were conducted three times weekly with removal of 90 [l and addition of 100 μl of fresh basal media.
For cisplatin induced injury, day 49 organoids were treated with 5 μM cisplatin in basal media after full media change. After 24 hours, full media exchanges were performed. This 24-hour treatment was performed twice a week, on day 52-53, day 56-57, day 59-60, and day 63-64 as well, for a total of five cisplatin treatments. Samples were obtained for RT-qPCR and immunostaining immediately following each 24-hour treatment with cisplatin, and from corresponding controls.
Following the treatment, the organoids were collected and immediately fixed in 4% PFA in PBS for 1 hour at room temperature, submerged in 30% sucrose overnight at 4° C., then embedded in O.C.T. Compound (4585. Fisher HealthCare). Subsequently, […] frozen sections were prepared via cryo-sectioning by a cryostat. After 1 hr blocking at room temperature, the sections were treated overnight at 4° C. with primary antibodies in antibody dilution buffer (ADB) with biotinylated LTL (1:200, B-1325, Vector), rat anti-CDH1 (1:500, ab11512, Abcam), goat anti-PODXL (1:500, AF1658, R&D Systems), as well as the antibody of interest, either mouse anti-p21 (1:200, NBP2-43697, Novus Biologicals), or rabbit anti-γH2AX (1:100, 2577, Cell Signaling) antibodies. For the optimum labeling of LTL by biotin/streptavidin interaction, the Streptavidin/Biotin Blocking Kit (SP-2002, Vector Laboratories) was applied according to the manufacturer's instructions. After washing, the samples were stained for 1 hour at RT with the nuclear dye-SYTOX Blue (1:500. S 11348, Invitrogen) and the corresponding secondary antibodies in ADB such as streptavidin-AF750 (1:500, S21384, Invitrogen), donkey anti-rat IgG-AF594 (1:500, A21209, Invitrogen), donkey anti-goat IgG-AF555 (1:500, A21432, Invitrogen), and donkey anti-rabbit IgG-AF488 (1:500, A21206, Invitrogen) for γH2AX or donkey anti-mouse IgG-AF488 (1:500, A21202, Invitrogen) for p21 antibodies as well as mouse anti-Meisl/⅔ (1:200, sc-101850, SantaCruz) conjugated antibody, and slides were mounted with Vectashield antifade mounting medium (H1000, Vector Laboratories). […]

Assay [3] has as its system kidney. Particulars: literature (ref. 21); cited from earlier work.

Turning to “2-[2,6-Dimethoxy-4-[7-(1-methylpyrazol-4-yl)imidazo[1,2-a]pyridin-3-yl]phenyl]-5-ethyl-1,3,4-oxadiazole [SK-124]”, in assay [1], the “basal YAP/TAZ reporter activity” value was “block” and the “TGFß-stimulated YAP/TAZ reporter activity” value is recorded as “block”.

Regarding `C=C1/C(=C\C=C2/CCC[C@]3(C)[C@@H]([C@H](C)CCCC(C)(C)O)CC[C@@H]23)C[C@@H](O)C[C@@H]1O` [calcitriol, 1,25-dihydroxy-vitamin D, reference compound], in assay [2], the “patterns of cisplatin-induced injury” value is given as “minimal effects”. The “anti-fibrotic effects in kidney” value in assay [3] is “anti-fibrotic effects in kidney”.

Regarding `C=C[C@@]1(C)CC(=O)[C@]2(O)[C@@]3(C)[C@@H](O)CCC(C)(C)[C@@H]3[C@H](O)[C@H](OC(C)=O)[C@@]2(C)O1` [forskolin, reference compound], in assay [1], the “basal YAP/TAZ reporter activity” value was “block” and the “TGFß-stimulated YAP/TAZ reporter activity” value is “block”.
